Values of other authors as cited in patent US20160378910A1, “MOLECULAR ACTIVE CENTER IDENTIFICATION USING TUNNELING BARRIERS AND/OR ASSOCIATED MEASUREMENTS FOR SUB-MOLECULAR QSAR” (Florida Institute of Technology, Inc., priority 2015, published 2016).

System: W-2 strain of P. falciparum
Details: W-2 strain of malaria (P. falciparum); rank among the twelve tryptanthrin analogs in the α3* lobe QSAR plot (FIG. 13)

In the case of `O=C1c2cc(I)ccc2-n2c1nc1c(O)nc(O)nc1c2=O` [1,3-diaza-2,4-hydroxy-8-iodotryptanthrin], the IC50 is listed as “highest”.
